For 82 compounds, CPE inhibition results are on record in PubChem BioAssay AID1250 (SRMLSC, 2008).

The source made the active and inactive calls.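 How the source made its calls: active means inhibition of at least 30% at one or more tested concentrations; inactive means inhibition below 30% at every dose.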

This assay can be described thus: inhibitors of Bluetongue virus cytopathic effect, confirmation, arbovirus, BSR cells (AID 1250). The conditions noted are these: BSR cells, Bluetongue virus CPE, ATP luminescence, 72 h; at 20 µM (top of the series).

Consider `COC(=O)c1ccccc1NC(=O)C1CCN(C(=O)c2cc(OC)c(OC)c(OC)c2)CC1`, for which the CPE inhibition is 1.96% (inactive).

Consider `CC1=C(C#N)C(=O)NC(=O)/C1=C\c1ccc(-c2cc(C)c(C)cc2[N+](=O)[O-])o1`, for which the CPE inhibition was 4.65% (inactive).

For the compound `CC(C)c1cc(C(F)(F)F)n2nc(C(=O)Nc3ccc4c(c3)OCO4)cc2n1`, the CPE inhibition is 9.64% (inactive).

Turning to `CC1CC1C(=O)Nc1nc(-c2ccc(Cl)s2)cs1` (configuration not stated), the CPE inhibition is 12% (inactive).

In the case of `COc1ccc(-c2noc(CSc3nc(-c4ccccc4)cc(=O)[nH]3)n2)cc1OC`, the CPE inhibition is 26.6% (inactive).

Consider `CSc1ncc(Cl)c(C(=O)C(C#N)c2nc3c(C)cc(C)cc3c(=O)[nH]2)n1` (configuration not stated), for which the CPE inhibition is 20.1% (inactive).

With `COc1cccc(C(=O)Nc2cccc(C(=O)NC3=NN(c4c(Cl)cc(Cl)cc4Cl)C(=O)C3)c2)c1`, the CPE inhibition was 18.8% (inactive).

For `O=c1oc(-c2cccs2)nc2sc3c(c12)CCCC3`, the CPE inhibition is 21.2% (inactive).

For `O=C(O)CCCC(=O)Nc1nc2n(n1)C(c1ccc(F)cc1)CC(c1ccc(Cl)cc1)N2` (configuration not stated), the CPE inhibition is 2.43% (inactive).

On to `O=C(c1ccco1)N1CCN(c2nc(-c3ccc(F)cc3)cs2)CC1`, for which the CPE inhibition is 17.1% (inactive).

Take `CCOC(=O)c1cnc(SCc2nc(N)nc(Nc3ccc(C)cc3)n2)nc1N`: the CPE inhibition was 29.3% (inactive).

Regarding `CCOC(=O)c1c(-c2ccc(C)cc2)csc1NC(=O)C1CC=CCC1C(=O)O` (configuration not stated), the CPE inhibition is 18.1% (inactive).

As for `O=C(O)c1cccc(-n2cccc2/C=C2/NC(=O)N(c3ccc(Cl)cc3)C2=O)c1`, the CPE inhibition was 10.4% (inactive).

For the compound `COc1ccc(C(=O)Nc2cc(Cl)ccc2C(=O)O)cc1`, the CPE inhibition was 17.7% (inactive).

Regarding `COCCCNCC1C(Oc2ccc(Cl)cc2)C(=O)N1c1ccccc1C` (configuration not stated), the CPE inhibition is 14.4% (inactive).

`O=C(CSc1nccc(=O)[nH]1)N1N=C2/C(=C/c3ccco3)CCCC2C1c1ccco1` (configuration not stated): the CPE inhibition is 21.5% (inactive).

For `CCCS(=O)(=O)n1nc(-c2ccc(OC)cc2OC)cc1N`, the CPE inhibition was -1.58% (inactive).

Regarding `O=C(CSc1nc2nn(-c3ccccc3)c(=O)c-2c2n1CCCCC2)NCCc1ccccc1`, the CPE inhibition was 10.8% (inactive).

Regarding `CSc1nc(-c2ccc(Cl)cc2Cl)[nH]c(=O)c1C#N`, the CPE inhibition is 24.3% (inactive).

Consider `COc1ccc(-c2noc(-c3cc(C)cc(C)c3)n2)cc1OC`, for which the CPE inhibition is 10% (inactive).

On to `Cc1ccc(C(=O)N/C(=C\c2cccs2)C(=O)NCc2cccnc2)cc1`, for which the CPE inhibition was 10.2% (inactive).

With `Cc1ccc(C(=O)c2coc3cc([N+](=O)[O-])c(O)c([N+](=O)[O-])c23)cc1`, the CPE inhibition was 18.6% (inactive).

For `COc1ccc(-c2csc(Nc3ccc(S(=O)(=O)Nc4cc(C)on4)cc3)n2)cc1`, the CPE inhibition was 14.2% (inactive).

For the compound `CC(C)CSC1=NSC2=NC(=O)/C(=C\c3coc4ccccc4c3=O)C(=N)N12`, the CPE inhibition was 14% (inactive).

As for `O=C(O)C(Cc1ccccc1)N=Cc1c(O)c2ccccc2oc1=O` (configuration not stated), the CPE inhibition was 7.31% (inactive).

`O=c1oc(-c2ccccc2NS(=O)(=O)c2ccc3ccccc3c2)nc2ccccc12`: the CPE inhibition is 10.9% (inactive).

As to `CC(C)(O[C@@H]1O[C@H](CO)[C@@H](O)[C@H](O)[C@H]1O)[C@H]1Cc2cc3ccc(=O)oc3cc2O1`, the CPE inhibition is 0.22% (inactive).

On to `O=C(Nc1scc(-c2ccc(F)cc2)c1C(=O)O)c1ccco1`, for which the CPE inhibition is 10% (inactive).

As to `CC(C)(CO)CNC(=O)CC1C(=O)NCCN1CC(c1ccccc1)c1ccccc1` (configuration not stated), the CPE inhibition was 1.48% (inactive).

`O=C(NCCN1C(=O)S/C(=C/c2cccnc2)C1=O)C1CC(=O)N(Cc2ccccc2)C1` (configuration not stated): the CPE inhibition was 3.69% (inactive).

Consider `C(=N\Nc1nc(-c2ccccc2)cs1)/c1ccco1`, for which the CPE inhibition is 20.9% (inactive).

On to `COCCn1c(C)cc(C(=O)CSc2cc(C)c3ccccc3n2)c1C`, for which the CPE inhibition is 7.16% (inactive).

As for `O=C1CC(N2CCC(Cc3ccccc3)CC2)C(=O)N1CCc1ccccc1` (configuration not stated), the CPE inhibition is 3.89% (inactive).

`CCCN(CCC)C(=O)CSc1nc2c(sc(=S)n2-c2ccc(OCC)cc2)c(=O)[nH]1`: the CPE inhibition was 28.7% (inactive).

Regarding `Cc1c(C(=O)NC(Cc2ccccc2)c2nc3ccccc3[nH]2)cccc1[N+](=O)[O-]` (configuration not stated), the CPE inhibition was 13.5% (inactive).

For the compound `O=C(O)c1ccc(COc2ccc3ccccc3c2/C=C2/NC(=O)N(Cc3ccc(F)cc3)C2=O)cc1`, the CPE inhibition was 7.43% (inactive).

As to `CCOC(=O)c1c(-c2ccccc2)csc1NC(=S)N(CC)CC`, the CPE inhibition was 10.8% (inactive).

`N#CCSc1nc(N)c(C#N)c(C2CCCCC2)c1C#N`: the CPE inhibition is 6.59% (inactive).

Take `COc1ccc(OC)c(/C=N\NC(=O)CC(=O)NCCc2ccccc2)c1`: the CPE inhibition is -1.6% (inactive).

In the case of `C#CCNC(=O)C1=C[C@H](c2cn(C(C)=O)c3ccccc23)C[C@H](OCc2ccc(CO)cc2)O1`, the CPE inhibition is -0.3% (inactive).

`CSc1nc(C)c(CCO)c(=O)[nH]1`: the CPE inhibition was 3.71% (inactive).

Turning to `CCN(CC)C(=O)CSC1=N/C(=C/c2ccco2)C(=O)N1c1ccc(OC)c(Cl)c1`, the CPE inhibition is 13.3% (inactive).

With `CN(c1ccccc1)c1ccc(/C=C(\CCC(=O)O)c2nc3ccccc3s2)cc1[N+](=O)[O-]`, the CPE inhibition was 21.4% (inactive).

For the compound `CCC(C)Sc1nc2c(c(=O)[nH]1)C(c1cccs1)C1=C(CCCC1=O)N2` (configuration not stated), the CPE inhibition was 10.1% (inactive).

As to `Cc1ccc(S(=O)(=O)Oc2ccc(C)cc2/C=N/N=C2\NC(=O)C(C)S2)cc1` (configuration not stated), the CPE inhibition is 25.2% (inactive).

In the case of `COc1cc(/C=C/C(=O)Nc2nnc(C(C)(C)C)s2)cc(OC)c1OC`, the CPE inhibition was 11.5% (inactive).

Consider `C=CCOc1c(Br)cc(/C=N/Nc2ccc(C(=O)O)cc2)cc1OCC`, for which the CPE inhibition was 14.1% (inactive).

For the compound `CCOC1=C/C(=C/c2c(N)n3nc(-c4ccccc4)sc3nc2=O)C=CC1=O`, the CPE inhibition was 18% (inactive).

Turning to `N#Cc1c(-c2ccco2)nc(SCC(=O)Nc2ccc(S(N)(=O)=O)cc2)[nH]c1=O`, the CPE inhibition was 4.9% (inactive).

In the case of `Cc1cccc(Sc2nc(-c3ccccc3)ncc2C(=O)O)c1`, the CPE inhibition was 7.57% (inactive).

Turning to `COc1ccc(-c2noc(-c3ccccc3-c3ccccc3)n2)cc1OC`, the CPE inhibition is 10.8% (inactive).

For the compound `C=CCSc1nnc(NC(=O)CSc2nc3ccccc3o2)s1`, the CPE inhibition is 21.8% (inactive).

Consider `Cc1ccc(NC(=O)/C(=C/C=C/c2ccccc2)NC(=O)c2ccccc2)cc1`, for which the CPE inhibition was 19.4% (inactive).

`COC(=O)c1sccc1NC(=O)CSc1ccccc1NS(=O)(=O)c1ccc(Br)cc1`: the CPE inhibition was 18.5% (inactive).

For `Fc1ccccc1N1CCN(c2ncnc3[nH]ncc23)CC1`, the CPE inhibition was 7.21% (inactive).

Turning to `Cc1[nH]c2ccccc2c1C1=CCNCC1`, the CPE inhibition is 3.08% (inactive).

For the compound `O=C(CSc1ncn[nH]1)Nc1nc(-c2ccccc2)ns1`, the CPE inhibition is 6.55% (inactive).

Consider `CCOc1ccc(-n2c(=S)sc3c(=O)[nH]c(SCC(=O)C(C)(C)C)nc32)cc1`, for which the CPE inhibition was 7.23% (inactive).

`CCOC(=O)c1c(O)c2c(n(Cc3ccco3)c1=O)CCCC2`: the CPE inhibition is 14.7% (inactive).

For `CN1CCN(c2ccc(/C=C3\C(=O)NC(=S)N(c4cccc(Br)c4)C3=O)o2)CC1`, the CPE inhibition was 14.7% (inactive).

Regarding `Cc1cccc(/C(N)=N/OC(=O)COc2ccc(Cl)cc2)c1`, the CPE inhibition was 5.92% (inactive).

Regarding `C=CCn1c(SC(C)C(N)=O)nc2sc(CC)cc2c1=O` (configuration not stated), the CPE inhibition was 18% (inactive).

Turning to `COc1cccc(CN=C2Nc3ccccc3CS2)c1`, the CPE inhibition was -0.42% (inactive).

Regarding `O=C(O)c1cc(N/N=C2/CC(c3ccccc3)Oc3ccccc32)ccc1Cl` (configuration not stated), the CPE inhibition was 16.6% (inactive).

For the compound `Cc1nn(-c2ccccc2)c2nc(C(F)(F)F)[nH]c(=O)c12`, the CPE inhibition is 20% (inactive).

Regarding `COc1ccc(C(=O)Nc2sc3c(c2C(=O)O)CC(C)(C)OC3)cc1`, the CPE inhibition was 27.2% (inactive).

Take `COCCSc1nnc(NC(=O)C2CCCCC2)s1`: the CPE inhibition is 6.07% (inactive).

As to `CC(C)(C)c1ccc(N/N=C(\C#N)S(=O)(=O)C(C)(C)C)cc1`, the CPE inhibition was 23.9% (inactive).

On to `O=C(Nc1nc2ccccc2s1)c1ccc(N2CCCCC2)c([N+](=O)[O-])c1`, for which the CPE inhibition is 22.1% (inactive).

With `O=C(N/N=C/c1c(O)n(-c2ccccc2Cl)c(=O)c2ccccc12)c1cccnc1`, the CPE inhibition is 26% (inactive).

As to `Cc1ccc(S(=O)(=O)N2CCN(c3ccnc4cc(Cl)ccc34)CC2)cc1C`, the CPE inhibition was 10.9% (inactive).

As for `O=S(=O)(Nc1ccc(-c2nnc(SCc3ccc(Cl)cc3)o2)cc1)c1ccccc1`, the CPE inhibition was 7.09% (inactive).

Take `N#Cc1ccccc1NC(=O)c1ccccc1OCC(=O)NCc1ccco1`: the CPE inhibition is 6.97% (inactive).

In the case of `Cc1ccc(C(=O)O)cc1-c1ccc(/C=C2/NC(=O)N(c3ccccc3)C2=O)o1`, the CPE inhibition is 19.9% (inactive).

Take `CCCCCNc1nc2ccccc2nc1NS(=O)(=O)c1cccs1`: the CPE inhibition is 20.4% (inactive).

Consider `COc1ccc(-c2nc(C3CCCCC3)no2)cc1OC`, for which the CPE inhibition was 8.02% (inactive).

Take `Cc1ccc2nc(NC(=O)C3CCCN(S(=O)(=O)c4cnc[nH]4)C3)sc2c1` (configuration not stated): the CPE inhibition was 22.3% (inactive).

As for `CN1CCN(C(=S)NC(=O)c2ccc(Cl)cc2)CC1`, the CPE inhibition was 29.2% (inactive).

Take `O=Cc1cn(-c2ccccc2)nc1-c1cc2cc(O)ccc2oc1=O`: the CPE inhibition is 9.88% (inactive).

As to `CN(C)/N=C/c1ccc(P(c2ccc(/C=N/N(C)C)o2)c2ccc(/C=N/N(C)C)o2)o1`, the CPE inhibition was 10.4% (inactive).

On to `Oc1ccc(F)cc1-c1cc(-c2ccc3c(c2)OCCO3)n[nH]1`, for which the CPE inhibition was 7.86% (inactive).

`CC1=NN2C(=N)/C(=C\c3ccc(SCc4ccccc4)o3)C(=O)N=C2S1`: the CPE inhibition was 21.1% (inactive).
